Measurements: PMC6199744, “Development of Chemical Proteomics for the Folateome and Analysis of the Kinetoplastid Folateome” (ACS Infectious Diseases, 2018)
Where two headings read alike, the source gives them in different places.

How the values were obtained:
Assay type in all cases: binding
[1] = target: T1, HeLa cell extract proteins (Homo sapiens, UniProt Q15120)
T1 construct: endogenous in cells; host or cells: HeLa cell extract

[2] = target: T2, HeLa cell extract proteins (Homo sapiens, UniProt Q15365)
T2 construct: endogenous in cells; host or cells: HeLa cell extract
T2 sequence (Q15365 whole entry): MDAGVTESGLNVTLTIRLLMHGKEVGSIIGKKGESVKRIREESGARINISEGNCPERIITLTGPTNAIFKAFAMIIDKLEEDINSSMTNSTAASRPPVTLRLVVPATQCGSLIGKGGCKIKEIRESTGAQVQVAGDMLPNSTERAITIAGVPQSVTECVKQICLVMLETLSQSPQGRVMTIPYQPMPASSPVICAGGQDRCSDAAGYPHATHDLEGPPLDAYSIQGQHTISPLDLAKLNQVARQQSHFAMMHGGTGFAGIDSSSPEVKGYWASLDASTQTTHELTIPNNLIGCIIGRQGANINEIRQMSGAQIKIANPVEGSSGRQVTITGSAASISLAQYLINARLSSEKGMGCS

[3] = target: T3, HeLa cell extract proteins (Homo sapiens, UniProt Q92947)
T3 construct: endogenous in cells; host or cells: HeLa cell extract
T3 sequence (Q92947 45-438): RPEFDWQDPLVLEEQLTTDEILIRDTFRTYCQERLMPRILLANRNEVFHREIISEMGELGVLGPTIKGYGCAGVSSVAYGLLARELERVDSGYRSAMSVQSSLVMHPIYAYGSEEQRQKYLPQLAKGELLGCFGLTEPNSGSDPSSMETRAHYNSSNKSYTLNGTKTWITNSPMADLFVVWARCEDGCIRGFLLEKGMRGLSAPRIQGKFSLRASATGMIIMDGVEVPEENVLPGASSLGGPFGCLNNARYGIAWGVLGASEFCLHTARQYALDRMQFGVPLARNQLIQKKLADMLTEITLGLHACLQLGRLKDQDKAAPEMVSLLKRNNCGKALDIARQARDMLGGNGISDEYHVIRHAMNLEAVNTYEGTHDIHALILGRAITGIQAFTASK

[4] = target: T4, HeLa cell extract proteins (Homo sapiens, UniProt P54819)
T4 construct: endogenous in cells; host or cells: HeLa cell extract

[5] = target: T5, HeLa cell extract proteins (Homo sapiens, UniProt O60664)
T5 construct: endogenous in cells; host or cells: HeLa cell extract
T5 sequence (O60664 1-434): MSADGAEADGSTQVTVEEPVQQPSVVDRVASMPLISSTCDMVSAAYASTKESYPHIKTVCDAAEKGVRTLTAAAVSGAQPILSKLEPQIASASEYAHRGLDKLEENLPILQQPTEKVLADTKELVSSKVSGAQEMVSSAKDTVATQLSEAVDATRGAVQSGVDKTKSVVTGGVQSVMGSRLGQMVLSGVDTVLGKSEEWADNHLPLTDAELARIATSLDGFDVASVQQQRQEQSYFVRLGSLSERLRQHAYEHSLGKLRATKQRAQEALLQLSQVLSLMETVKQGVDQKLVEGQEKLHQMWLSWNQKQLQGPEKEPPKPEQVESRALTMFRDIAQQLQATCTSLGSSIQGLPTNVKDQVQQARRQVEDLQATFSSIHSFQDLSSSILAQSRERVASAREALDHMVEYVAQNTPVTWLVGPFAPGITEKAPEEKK

[6] = target: T6, HeLa cell extract proteins (Homo sapiens, UniProt O95373)
T6 construct: endogenous in cells; host or cells: HeLa cell extract
T6 sequence (O95373 whole entry): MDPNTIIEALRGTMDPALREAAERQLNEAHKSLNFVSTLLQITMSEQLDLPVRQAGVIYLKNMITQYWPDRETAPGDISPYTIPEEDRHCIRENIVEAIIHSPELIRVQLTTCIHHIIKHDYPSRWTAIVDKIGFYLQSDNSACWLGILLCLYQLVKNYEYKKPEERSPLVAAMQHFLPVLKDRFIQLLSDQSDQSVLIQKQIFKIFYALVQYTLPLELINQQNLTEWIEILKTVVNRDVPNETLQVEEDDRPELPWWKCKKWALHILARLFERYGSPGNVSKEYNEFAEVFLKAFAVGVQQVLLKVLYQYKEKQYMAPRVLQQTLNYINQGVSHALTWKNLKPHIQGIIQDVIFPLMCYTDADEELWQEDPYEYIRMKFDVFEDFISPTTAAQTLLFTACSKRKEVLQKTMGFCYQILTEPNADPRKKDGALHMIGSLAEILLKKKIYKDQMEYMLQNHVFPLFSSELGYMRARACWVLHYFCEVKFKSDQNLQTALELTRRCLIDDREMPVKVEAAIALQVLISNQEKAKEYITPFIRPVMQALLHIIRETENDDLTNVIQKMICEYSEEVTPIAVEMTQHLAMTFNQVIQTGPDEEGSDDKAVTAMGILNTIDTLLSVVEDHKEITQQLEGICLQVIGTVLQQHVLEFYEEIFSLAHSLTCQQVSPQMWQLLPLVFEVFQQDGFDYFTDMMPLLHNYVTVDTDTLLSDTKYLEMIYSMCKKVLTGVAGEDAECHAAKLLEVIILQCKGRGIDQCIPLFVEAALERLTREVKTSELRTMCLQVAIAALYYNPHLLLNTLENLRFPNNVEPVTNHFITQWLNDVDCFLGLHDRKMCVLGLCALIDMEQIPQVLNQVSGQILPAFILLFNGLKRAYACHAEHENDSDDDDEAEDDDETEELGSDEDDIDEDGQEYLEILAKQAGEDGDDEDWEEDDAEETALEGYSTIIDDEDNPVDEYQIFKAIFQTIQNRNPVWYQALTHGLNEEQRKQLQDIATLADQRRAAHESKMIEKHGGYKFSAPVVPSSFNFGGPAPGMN

[7] = target: T7, HeLa cell extract proteins (Homo sapiens, UniProt P60842)
T7 construct: endogenous in cells; host or cells: HeLa cell extract
T7 sequence (P60842 whole entry): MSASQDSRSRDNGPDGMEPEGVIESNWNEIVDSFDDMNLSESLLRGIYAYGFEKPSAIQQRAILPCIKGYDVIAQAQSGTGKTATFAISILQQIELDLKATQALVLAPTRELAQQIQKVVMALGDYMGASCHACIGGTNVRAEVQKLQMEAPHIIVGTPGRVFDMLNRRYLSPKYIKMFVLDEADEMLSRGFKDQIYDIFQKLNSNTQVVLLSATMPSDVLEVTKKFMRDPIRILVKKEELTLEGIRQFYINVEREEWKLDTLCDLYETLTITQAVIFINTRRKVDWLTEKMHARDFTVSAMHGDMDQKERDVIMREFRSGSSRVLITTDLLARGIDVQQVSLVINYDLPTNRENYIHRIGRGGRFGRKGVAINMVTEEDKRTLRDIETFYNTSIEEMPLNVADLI

[8] = target: T8, HeLa cell extract proteins (Homo sapiens, UniProt P13995)
T8 construct: endogenous in cells; host or cells: HeLa cell extract
T8 sequence (P13995 36-350): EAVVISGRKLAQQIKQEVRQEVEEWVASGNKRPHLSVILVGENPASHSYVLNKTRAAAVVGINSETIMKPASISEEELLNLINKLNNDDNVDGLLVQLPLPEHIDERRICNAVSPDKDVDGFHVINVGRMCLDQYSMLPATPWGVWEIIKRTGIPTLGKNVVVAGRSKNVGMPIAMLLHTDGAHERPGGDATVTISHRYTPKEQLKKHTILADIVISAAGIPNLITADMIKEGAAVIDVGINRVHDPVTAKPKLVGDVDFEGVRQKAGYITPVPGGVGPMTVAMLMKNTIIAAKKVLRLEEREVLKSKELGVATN

[9] = target: T9, HeLa cell extract proteins (Homo sapiens, UniProt Q8N5P1)
T9 construct: endogenous in cells; host or cells: HeLa cell extract
T9 sequence (Q8N5P1 1-291): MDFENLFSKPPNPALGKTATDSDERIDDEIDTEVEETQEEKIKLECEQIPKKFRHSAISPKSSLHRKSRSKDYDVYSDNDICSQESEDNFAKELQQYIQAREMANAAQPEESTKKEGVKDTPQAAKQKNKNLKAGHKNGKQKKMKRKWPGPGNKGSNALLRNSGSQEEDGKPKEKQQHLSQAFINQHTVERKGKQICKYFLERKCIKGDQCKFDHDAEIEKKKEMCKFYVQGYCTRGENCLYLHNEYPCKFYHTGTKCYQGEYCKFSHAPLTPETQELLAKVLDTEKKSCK

[10] = target: T10, HeLa cell extract proteins (Homo sapiens, UniProt O60313)
T10 construct: endogenous in cells; host or cells: HeLa cell extract
T10 sequence (O60313 88-960): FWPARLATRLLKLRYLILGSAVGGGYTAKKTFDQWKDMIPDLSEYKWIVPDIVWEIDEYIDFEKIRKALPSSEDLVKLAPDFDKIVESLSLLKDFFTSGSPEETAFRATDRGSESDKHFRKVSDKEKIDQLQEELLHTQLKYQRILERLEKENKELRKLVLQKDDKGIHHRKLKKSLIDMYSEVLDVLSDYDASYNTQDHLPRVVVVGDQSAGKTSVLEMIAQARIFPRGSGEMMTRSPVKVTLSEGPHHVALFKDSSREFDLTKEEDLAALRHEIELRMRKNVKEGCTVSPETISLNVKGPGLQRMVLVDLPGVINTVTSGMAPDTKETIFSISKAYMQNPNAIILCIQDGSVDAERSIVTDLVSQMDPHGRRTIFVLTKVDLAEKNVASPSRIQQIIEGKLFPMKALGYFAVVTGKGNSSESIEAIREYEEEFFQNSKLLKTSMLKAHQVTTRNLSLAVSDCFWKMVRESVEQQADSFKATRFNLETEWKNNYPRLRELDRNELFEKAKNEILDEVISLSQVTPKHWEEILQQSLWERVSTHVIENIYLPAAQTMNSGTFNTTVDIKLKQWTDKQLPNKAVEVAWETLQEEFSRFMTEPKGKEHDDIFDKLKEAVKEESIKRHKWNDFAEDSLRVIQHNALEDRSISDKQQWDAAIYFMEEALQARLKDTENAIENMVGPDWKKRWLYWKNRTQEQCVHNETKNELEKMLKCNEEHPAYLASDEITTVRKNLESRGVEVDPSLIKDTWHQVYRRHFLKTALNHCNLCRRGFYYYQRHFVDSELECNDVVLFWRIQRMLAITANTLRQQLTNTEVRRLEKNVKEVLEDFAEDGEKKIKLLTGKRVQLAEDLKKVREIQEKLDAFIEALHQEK

[11] = HeLa, protein ZC3H8 (ZINC FINGER CCCH DOMAIN-CONTAINING PROTEIN 8)

T1 sequence (Q15120 whole entry): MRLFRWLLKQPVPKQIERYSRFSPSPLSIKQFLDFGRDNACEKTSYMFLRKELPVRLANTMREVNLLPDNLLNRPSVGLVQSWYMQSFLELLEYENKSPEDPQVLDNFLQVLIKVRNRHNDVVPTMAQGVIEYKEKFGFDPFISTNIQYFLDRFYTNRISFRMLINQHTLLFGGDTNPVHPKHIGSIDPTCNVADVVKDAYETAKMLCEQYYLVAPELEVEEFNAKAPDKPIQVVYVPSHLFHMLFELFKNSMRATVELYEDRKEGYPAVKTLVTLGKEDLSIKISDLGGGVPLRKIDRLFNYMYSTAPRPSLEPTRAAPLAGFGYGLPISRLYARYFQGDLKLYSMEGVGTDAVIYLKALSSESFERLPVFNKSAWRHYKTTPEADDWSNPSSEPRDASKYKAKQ

| Compound | fold changes relative to vehicle control ([1]; HeLa, protein PDK3) | fold changes relative to vehicle control ([2]; HeLa, protein PCBP1) | fold changes relative to vehicle control ([3]; HeLa, captured protein GCDH) | fold changes relative to vehicle control ([4]; protein AK2, HeLa) | fold changes relative to vehicle control ([5]; protein M6PRBP1, HeLa) | fold changes relative to vehicle control ([6]; HeLa, protein IPO7) | fold changes relative to vehicle control ([7]; HeLa, protein EIF4A1) | fold changes relative to vehicle control ([8]; HeLa, captured protein MTHFD2) | fold changes relative to vehicle control [9, 11] | fold changes relative to vehicle control ([10]; HeLa, protein OPA1) | fold changes relative to vehicle control ([1]; captured protein PDK3, HeLa) | fold changes relative to vehicle control ([2]; protein PCBP1, HeLa) | fold changes relative to vehicle control ([3]; captured protein GCDH, HeLa) | fold changes relative to vehicle control ([4]; captured protein AK2, HeLa) | fold changes relative to vehicle control ([6]; protein IPO7, HeLa) | fold changes relative to vehicle control ([7]; protein EIF4A1, HeLa) | fold changes relative to vehicle control ([8]; protein MTHFD2, HeLa) | fold changes relative to vehicle control ([9]; protein ZC3H8, HeLa) | further results |
| --- | --- | --- | --- | --- | --- | --- | --- | --- | --- | --- | --- | --- | --- | --- | --- | --- | --- | --- | --- |
| Nc1nc2c(c(=O)[nH]1)N(C=O)C(CNc1ccc(C(=O)N[C@@H](CCC(=O)O)C(=O)O)cc1)CN2 (stereo partly shown) [LEU, leucovorin] | 0.93 | 0.92 | 0.96 | 0.99 | 1 | 0.94 | 0.99 | 0.7 | 1.22 | 0.88 | – | – | – | – | – | – | – | – | – |
| Nc1nc2[nH]cc(CCc3ccc(C(=O)N[C@@H](CCC(=O)O)C(=O)O)cc3)c2c(=O)[nH]1 [PTX, pemetrexed] | – | – | – | – | – | – | – | – | – | – | – | – | – | – | – | – | – | – | fold changes relative to vehicle control [1]: 0.9; fold changes relative to vehicle control [2]: 0.88; fold changes relative to vehicle control [3]: 0.75; fold changes relative to vehicle control [4]: 0.86; fold changes relative to vehicle control [5]: 1.06; fold changes relative to vehicle control [6]: 0.93; fold changes relative to vehicle control [7]: 1.07; fold changes relative to vehicle control [8]: 1.05; fold changes relative to vehicle control [9]: 1.51; fold changes relative to vehicle control [10]: 0.84 |
| CCCCCCOc1ccc(Cc2cnc(N)nc2N)cc1 [compound 1] | – | – | – | – | 1.23 | – | – | – | – | 0.82 | 1 | 1.02 | 0.91 | 1.04 | 0.93 | 1.12 | 0.09 | 1.19 | – |
| CCCCCCOc1cccc(Cc2cnc(N)nc2N)c1 [compound 2] | – | – | – | – | 1.68 | – | – | – | – | 1.02 | 0.49 | 1.08 | 0.95 | 1 | 1.09 | 1.75 | 0.95 | 0.96 | – |
| Nc1nc2cccc(-c3ccccc3)c2n1Cc1ccc(Cl)c(Cl)c1 [compound 3] | – | – | – | – | 0.94 | – | – | – | – | 1.01 | 0.86 | 0.94 | 0.98 | 0.91 | 1.17 | 0.8 | 1.03 | 0.99 | – |
| NCCOCCOCC(=O)Nc1nc2ncc(CNc3ccc(C(=O)NC(CCC(=O)O)C(=O)O)cc3)nc2c(=O)[nH]1 (stereo not shown) [compound 6] | 0.87 | 0.94 | 0.62 | 0.95 | 1.27 | 0.98 | 1.27 | 1.06 | 1.04 | 0.87 | – | – | – | – | – | – | – | – | – |
| NCCCNc1ccc(C(=O)NC(CCC(=O)O)C(=O)O)cc1 (stereo not shown) [compound 7] | 0.99 | 0.91 | 0.98 | 1.08 | 0.93 | 0.99 | 0.89 | 1.02 | 1 | 0.94 | – | – | – | – | – | – | – | – | – |
